Key:
Experiment in all cases: biochemical
[1] = target: FLT3-autoinhibited (Homo sapiens, UniProt P36888); conditions: read-out: CPT-1-70-1 (1uM) % control
[2] = target: PKN2 (Homo sapiens, UniProt Q16513); conditions: read-out: CPT-1-70-1 (1μM) % control
[3] = target: NIK (Homo sapiens, UniProt Q99558); conditions: read-out: CPT-1-70-1 (1μM) % control
[4] = target: PIK3CD (Homo sapiens, UniProt O00329); conditions: read-out: CPT-1-70-1 (1μM) % control
Chain of PIK3CD (O00329 whole entry): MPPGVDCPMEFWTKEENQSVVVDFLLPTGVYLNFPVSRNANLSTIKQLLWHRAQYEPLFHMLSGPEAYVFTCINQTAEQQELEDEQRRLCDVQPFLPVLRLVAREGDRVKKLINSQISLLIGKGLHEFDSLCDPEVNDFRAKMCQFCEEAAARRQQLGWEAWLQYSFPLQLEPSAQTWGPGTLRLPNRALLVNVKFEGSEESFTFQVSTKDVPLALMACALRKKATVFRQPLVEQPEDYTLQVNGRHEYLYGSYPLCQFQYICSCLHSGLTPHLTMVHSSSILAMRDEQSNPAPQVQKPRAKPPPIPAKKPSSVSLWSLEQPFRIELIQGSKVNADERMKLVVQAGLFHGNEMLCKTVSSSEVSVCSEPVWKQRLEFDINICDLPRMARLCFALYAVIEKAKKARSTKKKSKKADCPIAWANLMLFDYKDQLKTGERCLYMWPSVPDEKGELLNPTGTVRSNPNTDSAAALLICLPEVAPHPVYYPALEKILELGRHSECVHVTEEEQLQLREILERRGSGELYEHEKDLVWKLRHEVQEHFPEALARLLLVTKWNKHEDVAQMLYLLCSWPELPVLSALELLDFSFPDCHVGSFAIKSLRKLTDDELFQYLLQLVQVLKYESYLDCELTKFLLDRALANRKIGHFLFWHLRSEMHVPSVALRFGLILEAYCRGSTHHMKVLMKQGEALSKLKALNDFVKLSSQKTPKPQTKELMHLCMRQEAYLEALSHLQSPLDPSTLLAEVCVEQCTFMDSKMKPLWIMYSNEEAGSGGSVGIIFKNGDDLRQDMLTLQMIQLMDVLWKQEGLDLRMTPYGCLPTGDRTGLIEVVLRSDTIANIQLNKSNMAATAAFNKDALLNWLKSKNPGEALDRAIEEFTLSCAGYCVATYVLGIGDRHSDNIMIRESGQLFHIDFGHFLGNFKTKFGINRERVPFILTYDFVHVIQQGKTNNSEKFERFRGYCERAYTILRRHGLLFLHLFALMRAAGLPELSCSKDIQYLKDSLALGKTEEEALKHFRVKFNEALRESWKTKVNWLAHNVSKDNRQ

Chain of NIK (Q99558 whole entry): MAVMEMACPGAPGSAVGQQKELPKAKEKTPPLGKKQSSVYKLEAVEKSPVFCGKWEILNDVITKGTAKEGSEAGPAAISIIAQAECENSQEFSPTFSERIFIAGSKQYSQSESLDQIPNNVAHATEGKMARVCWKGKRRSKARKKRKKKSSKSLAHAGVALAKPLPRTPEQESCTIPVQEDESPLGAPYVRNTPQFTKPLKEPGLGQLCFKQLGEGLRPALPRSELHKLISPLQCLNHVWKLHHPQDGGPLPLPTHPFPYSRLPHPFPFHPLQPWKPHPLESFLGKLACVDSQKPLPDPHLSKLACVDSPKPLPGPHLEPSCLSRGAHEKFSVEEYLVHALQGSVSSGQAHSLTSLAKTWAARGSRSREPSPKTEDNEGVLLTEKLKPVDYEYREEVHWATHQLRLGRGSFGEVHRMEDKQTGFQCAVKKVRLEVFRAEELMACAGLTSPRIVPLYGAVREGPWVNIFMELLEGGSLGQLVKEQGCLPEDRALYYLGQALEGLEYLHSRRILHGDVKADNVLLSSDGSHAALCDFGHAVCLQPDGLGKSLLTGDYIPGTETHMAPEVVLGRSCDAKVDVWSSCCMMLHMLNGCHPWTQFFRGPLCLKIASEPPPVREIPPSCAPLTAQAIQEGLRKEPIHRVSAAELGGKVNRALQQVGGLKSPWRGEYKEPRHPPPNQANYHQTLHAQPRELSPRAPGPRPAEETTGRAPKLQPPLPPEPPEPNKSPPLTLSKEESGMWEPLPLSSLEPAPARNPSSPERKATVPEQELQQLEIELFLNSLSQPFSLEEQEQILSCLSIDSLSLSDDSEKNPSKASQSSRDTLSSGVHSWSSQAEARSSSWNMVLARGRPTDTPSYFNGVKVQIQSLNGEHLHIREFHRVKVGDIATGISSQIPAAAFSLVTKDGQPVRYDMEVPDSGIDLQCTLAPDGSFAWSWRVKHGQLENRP
Chain of PKN2 (Q16513 whole entry): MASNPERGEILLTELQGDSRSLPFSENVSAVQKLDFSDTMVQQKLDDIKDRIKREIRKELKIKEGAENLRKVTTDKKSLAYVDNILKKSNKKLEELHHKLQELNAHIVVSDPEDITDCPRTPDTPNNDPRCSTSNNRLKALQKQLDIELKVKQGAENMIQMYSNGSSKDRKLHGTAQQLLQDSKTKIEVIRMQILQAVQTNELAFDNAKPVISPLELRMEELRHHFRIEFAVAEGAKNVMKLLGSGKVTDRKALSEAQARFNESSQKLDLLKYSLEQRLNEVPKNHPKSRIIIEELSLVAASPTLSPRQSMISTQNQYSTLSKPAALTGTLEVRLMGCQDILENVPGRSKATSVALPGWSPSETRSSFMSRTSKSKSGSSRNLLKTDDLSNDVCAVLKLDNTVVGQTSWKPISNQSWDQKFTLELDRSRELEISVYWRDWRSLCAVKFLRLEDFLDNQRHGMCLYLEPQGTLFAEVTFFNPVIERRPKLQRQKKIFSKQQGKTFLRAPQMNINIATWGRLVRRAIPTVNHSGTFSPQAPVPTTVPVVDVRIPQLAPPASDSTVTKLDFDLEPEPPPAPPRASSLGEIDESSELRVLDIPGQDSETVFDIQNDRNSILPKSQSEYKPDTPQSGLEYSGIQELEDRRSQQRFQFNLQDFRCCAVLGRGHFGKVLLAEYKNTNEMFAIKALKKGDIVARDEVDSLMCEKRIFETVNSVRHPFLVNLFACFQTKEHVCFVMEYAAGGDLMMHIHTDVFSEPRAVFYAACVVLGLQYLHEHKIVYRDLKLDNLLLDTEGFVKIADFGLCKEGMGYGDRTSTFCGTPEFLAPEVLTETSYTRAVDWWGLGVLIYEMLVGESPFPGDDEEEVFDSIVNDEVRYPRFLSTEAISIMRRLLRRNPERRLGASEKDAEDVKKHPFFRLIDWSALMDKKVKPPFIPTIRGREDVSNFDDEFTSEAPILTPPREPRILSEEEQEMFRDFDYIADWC
Chain of FLT3-autoinhibited (P36888 whole entry): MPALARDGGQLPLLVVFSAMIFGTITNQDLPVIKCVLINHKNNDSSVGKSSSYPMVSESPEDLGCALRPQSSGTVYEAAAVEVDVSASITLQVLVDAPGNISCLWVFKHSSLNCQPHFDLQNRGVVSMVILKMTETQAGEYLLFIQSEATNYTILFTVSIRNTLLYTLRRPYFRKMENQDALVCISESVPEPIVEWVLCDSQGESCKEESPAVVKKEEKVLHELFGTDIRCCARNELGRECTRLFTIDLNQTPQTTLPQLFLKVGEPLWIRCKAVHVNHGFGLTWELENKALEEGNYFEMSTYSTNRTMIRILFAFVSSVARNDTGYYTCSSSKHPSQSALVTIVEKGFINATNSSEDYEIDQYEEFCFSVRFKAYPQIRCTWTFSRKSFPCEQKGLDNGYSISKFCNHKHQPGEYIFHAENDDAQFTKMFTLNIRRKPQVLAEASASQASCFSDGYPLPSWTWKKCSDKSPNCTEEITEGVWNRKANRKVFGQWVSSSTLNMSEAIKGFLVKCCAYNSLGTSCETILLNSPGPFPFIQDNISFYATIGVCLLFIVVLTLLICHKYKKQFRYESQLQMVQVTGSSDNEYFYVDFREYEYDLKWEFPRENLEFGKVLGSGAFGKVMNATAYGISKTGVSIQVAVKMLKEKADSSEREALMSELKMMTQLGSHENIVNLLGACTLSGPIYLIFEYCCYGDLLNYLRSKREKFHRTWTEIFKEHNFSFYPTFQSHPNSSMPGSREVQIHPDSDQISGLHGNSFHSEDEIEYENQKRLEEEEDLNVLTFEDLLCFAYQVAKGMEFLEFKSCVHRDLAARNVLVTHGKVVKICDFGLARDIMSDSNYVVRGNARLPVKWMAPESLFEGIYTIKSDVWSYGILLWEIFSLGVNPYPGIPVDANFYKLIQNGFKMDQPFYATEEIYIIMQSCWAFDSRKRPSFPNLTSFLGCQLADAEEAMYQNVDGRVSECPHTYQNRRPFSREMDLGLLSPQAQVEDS

Work on CN1CCN(c2ccc(Nc3nc(Oc4ccc(NC(=O)CCl)cc4)c4cc[nH]c4n3)cc2)CC1 [CPT1-70-1] yielded a remaining activity at 1 µM [1] of 38%, a remaining activity at 1 µM [2] of 100% and a remaining activity at 1 µM [3] of 100%. The remaining activity at 1 µM [4] was 100%.
